The source made the active and inactive calls. The rule behind the calls is not given here.
How the values were obtained:
[1] = tested on: Kasumi 1; assay: Upregulation of BFL-1 protein expression in human Kasumi 1 cells by Western blotting analysis; format: functional, cell-based
[2] = biological target: T1, Bcl-2-related protein A1 (Homo sapiens, UniProt Q16548); assay: Displacement of fluorescein tagged BID BH3 peptide from His-tagged recombinant BFL-1 (1 to 151 residues) (unknown origin) expressed in Escherichia coli BL21 (DE3) assessed as inhibition constant incubated for 24 hrs by fluorescence polarization-based competitive binding assay
T1 sequence (Q16548 whole entry): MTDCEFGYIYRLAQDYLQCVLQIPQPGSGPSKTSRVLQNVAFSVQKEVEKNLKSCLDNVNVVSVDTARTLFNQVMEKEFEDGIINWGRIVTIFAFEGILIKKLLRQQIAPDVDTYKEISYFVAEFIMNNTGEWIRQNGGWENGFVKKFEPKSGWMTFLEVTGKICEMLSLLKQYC

[3] = biological target: Bcl-2-related protein A1 (Homo sapiens) (UniProt Q16548); assay: Binding affinity to His-tagged recombinant BFL-1 (1 to 151 residues) (unknown origin) expressed in Escherichia coli BL21 (DE3) assessed as association constant by surface plasmon resonance analysis
[4] = species: Homo sapiens; assay: Displacement of fluorescein tagged BID BH3 peptide from His-tagged recombinant BFL-1 (1 to 151 residues) C55A mutant (unknown origin) expressed in Escherichia coli BL21 (DE3) assessed as fold decrease in inhibition constant incubated for 24 hrs by fluorescence polarization-based competitive binding assay relative to wild type
[5] = biological target: Transcriptional enhancer factor TEF-4 (Homo sapiens, UniProt Q15562); assay: Displacement of FAM- labeled YAP1 peptide from TEAD2 (217 to 447 residues) (unknown origin) expressed in Escherichia coli BL21 (DE3) assessed as inhibition constant incubated for 1.5 hrs by fluorescence polarization-based competitive binding assay
Transcriptional enhancer factor TEF-4, sequence (Q15562 whole entry, the tested form may be a part): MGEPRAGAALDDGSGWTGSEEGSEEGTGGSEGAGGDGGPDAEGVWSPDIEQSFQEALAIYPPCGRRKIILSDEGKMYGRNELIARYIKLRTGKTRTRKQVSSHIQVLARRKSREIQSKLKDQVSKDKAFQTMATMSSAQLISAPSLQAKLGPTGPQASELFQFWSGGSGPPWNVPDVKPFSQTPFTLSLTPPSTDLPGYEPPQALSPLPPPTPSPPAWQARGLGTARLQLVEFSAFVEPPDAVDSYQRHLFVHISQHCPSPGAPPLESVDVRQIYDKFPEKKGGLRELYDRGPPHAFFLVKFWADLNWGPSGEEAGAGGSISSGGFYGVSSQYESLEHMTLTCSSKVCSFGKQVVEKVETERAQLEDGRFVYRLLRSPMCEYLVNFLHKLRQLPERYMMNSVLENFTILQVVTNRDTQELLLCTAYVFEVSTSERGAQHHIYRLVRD

[6] = Displacement of FAM- labeled PDI peptide from MDM4 C17S mutant (14 to 111 residues) (unknown origin) expressed in Escherichia coli BL21 (DE3) assessed as inhibition constant incubated for 1.5 hrs by fluorescence polarization-based competitive binding assay; design: species or system Homo sapiens
[7] = biological target: Programmed cell death protein 1/Programmed cell death 1 ligand 1 (Homo sapiens, UniProt Q15116+Q9NZQ7); assay: Inhibition of biotinylated tagged PD-1 (unknown origin)/His tagged PD-L1 (unknown origin) protein-protein interaction assessed as inhibition constant incubated for 90 mins by AlphaLISA assay; format: protein-complex assay
Programmed cell death protein 1/Programmed cell death 1 ligand 1, sequence (Q15116 whole entry): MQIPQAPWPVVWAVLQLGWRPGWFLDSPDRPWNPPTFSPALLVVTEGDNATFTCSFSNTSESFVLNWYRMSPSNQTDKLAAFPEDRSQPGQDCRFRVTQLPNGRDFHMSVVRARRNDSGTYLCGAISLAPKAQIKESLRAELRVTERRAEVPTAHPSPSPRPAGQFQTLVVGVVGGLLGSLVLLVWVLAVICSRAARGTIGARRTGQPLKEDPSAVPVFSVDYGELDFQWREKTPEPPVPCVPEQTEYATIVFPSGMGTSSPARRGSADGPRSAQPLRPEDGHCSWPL
Programmed cell death protein 1/Programmed cell death 1 ligand 1, sequence (Q9NZQ7 whole entry): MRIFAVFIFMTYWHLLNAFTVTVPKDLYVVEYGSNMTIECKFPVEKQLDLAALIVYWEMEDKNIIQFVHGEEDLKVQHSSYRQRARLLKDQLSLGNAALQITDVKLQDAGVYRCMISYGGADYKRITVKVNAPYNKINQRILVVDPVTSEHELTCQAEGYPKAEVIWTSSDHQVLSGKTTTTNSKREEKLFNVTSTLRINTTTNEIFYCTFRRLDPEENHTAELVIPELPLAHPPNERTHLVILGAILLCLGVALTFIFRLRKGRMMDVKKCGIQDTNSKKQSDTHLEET

[8] = tested on: Kasumi 1; assay: Induction of apoptosis in human Kasumi 1 cells overexpressing BFL-1 assessed as increase in cytochrome c level at 5 to 40 uM incubated for 3 hrs by immunoblotting analysis; format: functional, cell-based; settings: dose 5-40 µM
[9] = tested on: U-937; assay: Induction of apoptosis in human U-937 cells assessed as increase in BFL-1 protein expression after 24 hrs by Western blot analysis; format: functional, cell-based; settings: DDE = dose-dependent effect
[10] = tested on: U-937; assay: Induction of apoptosis in human U-937 cells assessed as phosphatidylserine level measured after 4 hrs by Annexin V staining based flow cytometry analysis; format: functional, cell-based; settings: DDE = dose-dependent effect
[11] = tested on: U-937; assay: Induction of apoptosis in human U-937 cells assessed as early apoptotic cells at 10 uM measured after 4 hrs by Annexin PI staining based flow cytometry method (reference value: 1.95 %); format: functional
[12] = tested on: U-937; assay: Induction of apoptosis in human U-937 cells assessed as early apoptotic cells at 20 uM measured after 4 hrs by Annexin PI staining based flow cytometry method (reference value: 1.95 %); format: functional
[13] = tested on: U-937; assay: Induction of apoptosis in human U-937 cells assessed as necrotic cells at 20 uM measured after 4 hrs by Annexin PI staining based flow cytometry method (reference value: 0.00 %); format: functional
[14] = tested on: U-937; assay: Induction of apoptosis in human U-937 cells assessed as early apoptotic cells at 40 uM measured after 4 hrs by Annexin PI staining based flow cytometry method (reference value: 1.95 %); format: functional
[15] = tested on: U-937; assay: Induction of apoptosis in human U-937 cells assessed as necrotic cells at 40 uM measured after 4 hrs by Annexin PI staining based flow cytometry method (reference value: 0.00 %); format: functional
[16] = tested on: U-937; assay: Induction of apoptosis in human U-937 cells assessed as necrotic cells at 60 uM measured after 4 hrs by Annexin PI staining based flow cytometry method (reference value: 0.00 %); format: functional
[17] = tested on: RPMI-8226; assay: Growth inhibition of human RPMI-8226 cells incubated for 4 days by WST assay; format: functional, cell-based; settings: RPMI-8226, 96 h
[18] = tested on: U-937; assay: Upregulation of BFL-1 protein expression in human U-937 cells by Western blotting analysis; format: functional, cell-based
[19] = tested on: MM1.S; assay: Upregulation of BFL-1protein expression in human MM1.S cells by Western blotting analysis; format: functional, cell-based
[20] = tested on: MV4-11; assay: Upregulation of BFL-1protein expression in human MV4-11 cells by Western blotting analysis; format: functional, cell-based
[21] = biological target: BCL2A11/BBC3 (Homo sapiens) (UniProt Q16548+Q9BXH1); assay: Inhibition of human BFL-1/PUMA protein-protein interaction in human Kasumi 1 cells assessed as increase in BFL-1 protein level at 20 to 80 uM measured after 5 hrs by co-immunoprecipitation assay; format: cell-based; settings: dose 20-80 µM
BCL2A11/BBC3 (Homo sapiens), sequence (Q9BXH1 whole entry, looked up, one chain of several): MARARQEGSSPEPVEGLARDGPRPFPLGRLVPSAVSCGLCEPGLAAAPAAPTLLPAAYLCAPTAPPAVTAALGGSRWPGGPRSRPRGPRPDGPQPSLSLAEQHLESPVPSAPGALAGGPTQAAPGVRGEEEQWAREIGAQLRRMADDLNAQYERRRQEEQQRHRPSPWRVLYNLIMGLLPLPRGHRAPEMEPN

C=CC(=O)N1CCN(c2c3ccc(-c4cccc(F)c4)cc3nn2Cc2ccccc2)CC1
Activity [1]: Active | Ki [2]: 0.41 µM | Ka [3]: 2.09 10^5/Ms | fold change (FC) [4]: 21 | Ki [5]: > 400 µM | Ki [6]: > 400 µM | Ki [7]: > 400 µM | Activity [8]: Active | Activity [9]: Dde | Activity [10]: Dde | Activity [11]: 6.03% | Activity [12]: 8.02% | Activity [13]: 1.02% | Activity [14]: 5.52% | Activity [15]: 7.22% | Activity [16]: 11.37% | IC50 [17]: 8.7 µM | Activity [18]: Active | Activity [19]: Active | Activity [20]: Active | Activity [21]: Active

From ChEMBL document CHEMBL5154839, “Discovery of a selective and covalent small-molecule inhibitor of BFL-1 protein that induces robust apoptosis in cancer cells” (Eur J Med Chem, 2022)
